Laboratory results as given in US6432433B1, “Liquid biocidal composition of a formaldehyde adduct and an isothiazolone and method of use” (ISP Investments Inc., priority 2000, dated 2002).
Several values for one entry are separate records, joined by “and”; a condition that tells them apart may be missing. Equal values may be shown once. Read-outs that look alike come from different tables or passages of the source.

Tests used:
Type in all cases: cell-based
[1] = system: Staphylococcus aureus (ATCC 6538); assay: MIC on Tryptic Soy Agar; conditions: S. aureus; TSA, 32° C., 48 hours
Protocol: (§1) The agar was inoculated to contain about 1×10^6 CFU/ml bacterial cells or fungal spores.
(§2) The MIC were taken as end points of activity. End points for the mixture of NMPFA (DMO, MBO or HMAE) and BIT were then compared with the end points for the pure active compound when employed individually.
(§3) Synergism was determined by a commonly used method described by Kull, A. C., Eisman, P. C, Sylwestrowicz ,H., D. and Mayer, R. L. (1961). Applied Microbiology, 9:538 using the ratio determined by:
(§4) Qa/QA+Qb/QB=Synergy Index (SI)
(§5) where QA is the concentration of the formaldehyde adduct in parts per million (ppm), acting alone, which produced an end point. Qa is the concentration of the formaldehyde adduct in ppm, in the mixture, which produced an end point. QB is the concentration of BIT in ppm, acting alone, which produced an end point and Qb is the concentration of BIT in ppm, in the mixture, which produced an end point.
(§6) When the sum of Qa/QA+Qb/QB is greater than one, antagonism is indicated. When the sum is equal to one, additivity is indicated.

[2] = system: Escherichia coli (ATCC 11229); assay: MIC on Tryptic Soy Agar; conditions: E. coli; TSA, 32° C., 48 hours
Protocol: as §1, §2, §3, §4, §5, §6

[3] = system: Pseudomonas aeruginosa (ATCC 10145); assay: MIC on Tryptic Soy Agar; conditions: P. aeruginosa; TSA, 32° C., 48 hours
Protocol: as §1, §2, §3, §4, §5, §6

[4] = system: Enterobacter cloacae (ATCC 13047); assay: MIC on Tryptic Soy Agar; conditions: E. cloacae; TSA, 32° C., 48 hours
Protocol: as §1, §2, §3, §4, §5, §6

[5] = system: Bacillus subtilis (ATCC 27328); assay: MIC on Tryptic Soy Agar; conditions: for MIC: Bacillus subtilis, read-out: MIC end point, compound alone (QA / QB)
Protocol: as §1, §2, §3, §4, §5, §6

[6] = system: mixed culture of P. aeruginosa, E. cloacae, B. subtilis, B. megaterium and B. licheniformis; assay: In-can preservation of latex paint (ASTM D2574-97), two challenges; conditions: polyvinyl acrylic paint, 32° C., mixed inoculum, rechallenged after 7 days
Protocol: The efficacy of each individual compound or their combination was measured in a latex paint artificially contaminated with a mixed inoculum. The microbiological evaluations shown as examples, are based on ASTM D2574-97, “Resistance of emulsion paints in the container to the attack of microorganisms”. Briefly, paint samples (e.g. polyvinyl acrylic, PCL 717) were prepared to contain different concentrations of each compound or their mixtures in different concentrations and ratios. Each paint sample thus prepared was then inoculated with a mixed culture of P. aeruginosa, E. cloacae, B. subtilis, B. megaterium and B. licheniformis (final concentration of about 10^6 CFU/ml) and rechallenged after 7 days (final concentration of about 10^7 CFU/ml). Paint samples were incubated at 32° C. for the duration of the test and sampled for the presence of viable bacteria on TSA plates. A paint sample was considered appropriately preserved if no bacterial growth was detected after six days in both challenge assays. […]
1. The end-point activity in ppm obtained when no viable bacteria was detected after both challenges in a paint sample containing the compound A alone (QA), for compound A in the mixture (Qa), for compound B alone (QB) or for compound B in the mixture (Qb). […]
3. The calculated Synergy Index (SI), as described above

[7] = system: Aureobasidium pullulans (ATCC 9348); assay: MIC on Potato Dextrose Agar; conditions: A. pullulans; PDA, 28°, 7-10 days
Protocol: as §1, §2, §3, §4, §5, §6

[8] = system: Chaetomium globosum (ATCC 6205); assay: MIC on Potato Dextrose Agar; conditions: C. globosum; PDA, 28°, 7-10 days
Protocol: as §1, §2, §3, §4, §5, §6

[9] = system: Aspergillus niger (ATCC 6275); assay: MIC on Potato Dextrose Agar; conditions: A. niger; PDA, 28°, 7-10 days
Protocol: as §1, §2, §3, §4, §5, §6

[10] = system: Gliocladium virens (ATCC 9645); assay: MIC on Potato Dextrose Agar; conditions: for MIC: Trichoderma virens
Protocol: as §1, §2, §3, §4, §5, §6

[11] = system: Penicillium funiculosum (ATCC 11797); assay: MIC on Potato Dextrose Agar; conditions: P. funiculosum; PDA, 28°, 7-10 days
Protocol: as §1, §2, §3, §4, §5, §6

[12] = B. subtilis, TSA, 32° C., 48 hours

Question: With O=c1[nH]sc2ccccc12 [BIT, 1,2-benzisothiazolin-3-one, reference compound] as the compound, how does the “MIC end point, compound alone (QA / QB)” value [1] read?
Answer: The value was 50 ppm.

Question: And the “MIC end point, compound alone (QA / QB)” value [2]?
Answer: Its value is 50.0 ppm.

Question: And the “MIC end point, compound alone (QA / QB)” value [3]?
Answer: The value was 250.0 ppm.

Question: What about the “MIC end point, compound alone (QA / QB)” value [4] of the same compound?
Answer: The value was 2500 ppm.

Question: And the “MIC end point, compound alone (QA / QB)” value [5, 12]?
Answer: The value was 25.0 ppm and 25 ppm.

Question: What about the “End-point activity (no viable bacteria detected after both challenges), compound alone (QA / QB)” value [6] of the same compound?
Answer: Its value is 170.0 ppm.

Question: What about the “MIC end point, compound alone (QA / QB)” value [7] of the same compound?
Answer: Its value is 50 ppm.

Question: What about the “MIC end point, compound alone (QA / QB)” value [8] of the same compound?
Answer: The value was 250 ppm.

Question: And the “MIC end point, compound alone (QA / QB)” value [9]?
Answer: Its value is 250 ppm.

Question: And the “MIC end point, compound alone (QA / QB)” value ([10]; G. virens, PDA, 28°, 7-10 days)?
Answer: The value was 100 ppm.

Question: And the “MIC end point, compound alone (QA / QB)” value [11]?
Answer: Its value is 25 ppm.

Question: What does the source list for CC1(C)COCN1 [DMO, 4,4-dimethyloxazolidine]?
Answer: MIC ([5]; ATCC27328, B. subtilis, TSA, 32° C., 48 hours): 385 µg/mL; MIC ([10]; ATCC9645, G. virens, PDA, 28°, 7-10 days, read-out: MIC end point, compound alone (QA / QB)): 770 µg/mL

Question: How did the MIC ([5]; ATCC27328, 48 h) turn out when OCCNCO [HMAE, 2-[(hydroxymethyl)amino]ethanol] was run?
Answer: The MIC was 250 µg/mL.

Question: What about the MIC ([10]; ATCC9645, read-out: MIC end point, compound alone (QA / QB)) of the same compound?
Answer: Its MIC is 1000 µg/mL.

Question: How did the “MIC end point, compound alone (QA / QB)” value [1] turn out when CC(O)CN(C)CC(C)OCO (centres unmarked) [NMPFA, N-methyl-2-hydroxymethyleneoxypropyl-2′-hydroxypropylamine] was run?
Answer: Its value is 1,000 ppm.

Question: And the “MIC end point, compound alone (QA / QB)” value [2]?
Answer: Its value is 1,000 ppm.

Question: What about the “MIC end point, compound alone (QA / QB)” value [3] of the same compound?
Answer: The value was 1,000 ppm.

Question: What about the “MIC end point, compound alone (QA / QB)” value [4] of the same compound?
Answer: Its value is 1,000 ppm.

Question: What about the “MIC end point, compound alone (QA / QB)” value [5, 12] of the same compound?
Answer: The value was 500 ppm.

Question: What about the “End-point activity (no viable bacteria detected after both challenges), compound alone (QA / QB)” value [6] of the same compound?
Answer: The value was 1,000 ppm.

Question: What about the “MIC end point, compound alone (QA / QB)” value [7] of the same compound?
Answer: Its value is 500 ppm.

Question: And the “MIC end point, compound alone (QA / QB)” value [8]?
Answer: Its value is >2,000 ppm.

Question: What about the “MIC end point, compound alone (QA / QB)” value [9] of the same compound?
Answer: The value was 1,000 ppm.

Question: What about the “MIC end point, compound alone (QA / QB)” value ([10]; G. virens, PDA, 28°, 7-10 days) of the same compound?
Answer: The value was >2,000 ppm.

Question: And the “MIC end point, compound alone (QA / QB)” value [11]?
Answer: The value was 250 ppm.
